ChEMBL document CHEMBL1201862, “PubChem BioAssay data set” (2004)
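Step 1: Grow cells in 96-well plates. Step 2: Expose to compound for 48 hours at 5 concentrations. Step 3: Interpolate endpoints linearly; if unreached, use highest concentration. The concentration for 50% growth inhibition is given as GI50.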 The source made the active and inactive calls. No stated cut-off is given here; in the data, active = GI50 up to about 1.1 µM and inactive = higher.

Legend:
Assay in all cases: NCI anticancer screen, dose series, 48 h
786-0 = tested on: 786-0
A498 = tested on: A498
A549 = tested on: A549
ACHN = tested on: ACHN
BT-549 = tested on: BT-549
CAKI-1 = tested on: CAKI-1
CCRF-CEM = tested on: CCRF-CEM
COLO 205 = tested on: COLO 205
DU-145 = tested on: DU-145
HCC 2998 = tested on: HCC 2998
HCT-116 = tested on: HCT-116
HCT-15 = tested on: HCT-15
HOP-62 = tested on: HOP-62
HOP-92 = tested on: HOP-92
HT-29 = tested on: HT-29
Hs-578T = tested on: Hs-578T
IGROV-1 = tested on: IGROV-1
K562 = tested on: K562
KM12 = tested on: KM12
M14 = tested on: M14
MCF7 = tested on: MCF7
MDA-MB-231 = tested on: MDA-MB-231
MDA-MB-435 = tested on: MDA-MB-435
MDA-N = tested on: MDA-N
MOLT-4 = tested on: MOLT-4
Malme-3M = tested on: Malme-3M
NCI-H226 = tested on: NCI-H226
NCI-H23 = tested on: NCI-H23
NCI-H460 = tested on: NCI-H460
NCI-H522 = tested on: NCI-H522
NCI/ADR-RES = tested on: NCI/ADR-RES
OVCAR-3 = tested on: OVCAR-3
OVCAR-4 = tested on: OVCAR-4
OVCAR-5 = tested on: OVCAR-5
OVCAR-8 = tested on: OVCAR-8
PC-3 = tested on: PC-3
RPMI-8226 = tested on: RPMI-8226
RXF 393 = tested on: RXF 393
SF-268 = tested on: SF-268
SF-295 = tested on: SF-295
SF-539 = tested on: SF-539
SK-MEL-28 = tested on: SK-MEL-28
SK-MEL-2 = tested on: SK-MEL-2
SK-MEL-5 = tested on: SK-MEL-5
SK-OV-3 = tested on: SK-OV-3
SN12C = tested on: SN12C
SNB-75 = tested on: SNB-75
SR = tested on: SR
SW-620 = tested on: SW-620
T47D = tested on: T47D
TK-10 = tested on: TK-10
U-251 = tested on: U-251
UACC-257 = tested on: UACC-257
UACC-62 = tested on: UACC-62
UO-31 = tested on: UO-31
EKVX = tested on: EKVX
HL-60 = tested on: HL-60
LOX IMVI = tested on: LOX IMVI
SNB-19 = tested on: SNB-19

Which results are given for `COc1ccc(C2SCC(=O)N2NC2=NC(=O)CC(=O)N2)cc1` (configuration not stated)?
GI50 (786-0): > 100 µM (inactive); GI50 (A498): > 100 µM (inactive); GI50 (A549): > 100 µM (inactive); GI50 (ACHN): > 100 µM (inactive); GI50 (BT-549): > 100 µM (inactive); GI50 (CAKI-1): > 100 µM (inactive); GI50 (CCRF-CEM): > 100 µM (inactive); GI50 (COLO 205): > 100 µM (inactive); GI50 (DU-145): > 100 µM (inactive); GI50 (HCC 2998): > 100 µM (inactive); GI50 (HCT-116): > 100 µM (inactive); GI50 (HCT-15): > 100 µM; GI50 (HOP-62): > 100 µM (inactive); GI50 (HOP-92): > 100 µM (inactive); GI50 (HT-29): > 100 µM (inactive); GI50 (Hs-578T): > 100 µM (inactive); GI50 (IGROV-1): > 100 µM (inactive); GI50 (K562): > 100 µM (inactive); GI50 (KM12): > 100 µM (inactive); GI50 (M14): > 100 µM (inactive); GI50 (MCF7): > 100 µM (inactive); GI50 (MDA-MB-231): > 100 µM (inactive); GI50 (MDA-MB-435): > 100 µM (inactive); GI50 (MDA-N): > 100 µM (inactive); GI50 (MOLT-4): > 100 µM (inactive); GI50 (Malme-3M): > 100 µM (inactive); GI50 (NCI-H226): > 100 µM (inactive); GI50 (NCI-H23): > 100 µM (inactive); GI50 (NCI-H460): > 100 µM (inactive); GI50 (NCI-H522): > 100 µM (inactive); GI50 (NCI/ADR-RES): > 100 µM (inactive); GI50 (OVCAR-3): > 100 µM (inactive); GI50 (OVCAR-4): > 100 µM (inactive); GI50 (OVCAR-5): > 100 µM (inactive); GI50 (OVCAR-8): > 100 µM (inactive); GI50 (PC-3): > 100 µM (inactive); GI50 (RPMI-8226): > 100 µM (inactive); GI50 (RXF 393): > 100 µM (inactive); GI50 (SF-268): > 100 µM (inactive); GI50 (SF-295): > 100 µM (inactive); GI50 (SF-539): > 100 µM (inactive); GI50 (SK-MEL-28): > 100 µM (inactive); GI50 (SK-MEL-2): > 100 µM (inactive); GI50 (SK-MEL-5): > 100 µM (inactive); GI50 (SK-OV-3): > 100 µM (inactive); GI50 (SN12C): > 100 µM (inactive); GI50 (SNB-75): > 100 µM (inactive); GI50 (SR): > 100 µM (inactive); GI50 (SW-620): > 100 µM (inactive); GI50 (T47D): > 100 µM (inactive); GI50 (TK-10): > 100 µM (inactive); GI50 (U-251): > 100 µM (inactive); GI50 (UACC-257): > 100 µM (inactive); GI50 (UACC-62): > 100 µM (inactive); GI50 (UO-31): > 100 µM (inactive)

With `O=CNC(Cc1c[nH]cn1)C(=O)O` (configuration not stated) as the compound, how does the GI50 (786-0) read?
Its GI50 is > 100 µM (inactive).

What about the GI50 (A498) of the same compound?
Its GI50 is > 100 µM (inactive).

And the GI50 (A549)?
The GI50 was > 100 µM (inactive).

And the GI50 (ACHN)?
Its GI50 is > 100 µM (inactive).

What about the GI50 (BT-549) of the same compound?
The GI50 was > 100 µM (inactive).

And the GI50 (CAKI-1)?
The GI50 was > 100 µM (inactive).

And the GI50 (CCRF-CEM)?
The GI50 was > 100 µM (inactive).

And the GI50 (COLO 205)?
The GI50 was > 100 µM (inactive).

And the GI50 (DU-145)?
The GI50 was > 100 µM (inactive).

What about the GI50 (EKVX) of the same compound?
Its GI50 is > 100 µM (inactive).

What about the GI50 (HCT-116) of the same compound?
The GI50 was > 100 µM (inactive).

And the GI50 (HCT-15)?
The GI50 was > 100 µM.

What about the GI50 (HL-60) of the same compound?
The GI50 was > 100 µM (inactive).

And the GI50 (HOP-62)?
Its GI50 is > 100 µM (inactive).

And the GI50 (HOP-92)?
The GI50 was > 100 µM (inactive).

What about the GI50 (HT-29) of the same compound?
Its GI50 is > 100 µM (inactive).

And the GI50 (Hs-578T)?
Its GI50 is > 100 µM (inactive).

What about the GI50 (IGROV-1) of the same compound?
The GI50 was > 100 µM (inactive).

And the GI50 (K562)?
The GI50 was > 100 µM (inactive).

And the GI50 (KM12)?
Its GI50 is > 100 µM (inactive).

And the GI50 (LOX IMVI)?
Its GI50 is > 100 µM (inactive).

What about the GI50 (M14) of the same compound?
Its GI50 is > 100 µM (inactive).

And the GI50 (MCF7)?
The GI50 was > 100 µM (inactive).

What about the GI50 (MDA-MB-231) of the same compound?
Its GI50 is > 100 µM (inactive).

What about the GI50 (MDA-MB-435) of the same compound?
Its GI50 is > 100 µM (inactive).

And the GI50 (MDA-N)?
Its GI50 is > 100 µM (inactive).

And the GI50 (Malme-3M)?
The GI50 was > 100 µM (inactive).

What about the GI50 (NCI-H226) of the same compound?
The GI50 was > 100 µM (inactive).

And the GI50 (NCI-H23)?
Its GI50 is > 100 µM (inactive).

And the GI50 (NCI-H460)?
Its GI50 is > 100 µM (inactive).

What about the GI50 (NCI-H522) of the same compound?
Its GI50 is > 100 µM (inactive).

What about the GI50 (NCI/ADR-RES) of the same compound?
The GI50 was > 100 µM (inactive).

What about the GI50 (OVCAR-3) of the same compound?
The GI50 was > 100 µM (inactive).

And the GI50 (OVCAR-4)?
The GI50 was > 100 µM (inactive).

And the GI50 (OVCAR-5)?
Its GI50 is > 100 µM (inactive).

What about the GI50 (OVCAR-8) of the same compound?
Its GI50 is > 100 µM (inactive).

And the GI50 (PC-3)?
The GI50 was > 100 µM (inactive).

And the GI50 (RPMI-8226)?
The GI50 was > 100 µM (inactive).

And the GI50 (RXF 393)?
The GI50 was > 100 µM (inactive).

And the GI50 (SF-268)?
Its GI50 is > 100 µM (inactive).

What about the GI50 (SF-295) of the same compound?
Its GI50 is > 100 µM (inactive).

What about the GI50 (SF-539) of the same compound?
The GI50 was > 100 µM (inactive).

And the GI50 (SK-MEL-28)?
The GI50 was > 100 µM (inactive).

And the GI50 (SK-MEL-2)?
The GI50 was > 100 µM (inactive).

And the GI50 (SK-MEL-5)?
The GI50 was > 100 µM (inactive).

And the GI50 (SK-OV-3)?
Its GI50 is > 100 µM (inactive).

And the GI50 (SN12C)?
The GI50 was > 100 µM (inactive).

What about the GI50 (SNB-19) of the same compound?
The GI50 was > 100 µM (inactive).

What about the GI50 (SNB-75) of the same compound?
The GI50 was > 100 µM (inactive).

And the GI50 (SR)?
Its GI50 is > 100 µM (inactive).

And the GI50 (SW-620)?
Its GI50 is > 100 µM (inactive).

And the GI50 (T47D)?
Its GI50 is > 100 µM (inactive).

What about the GI50 (TK-10) of the same compound?
Its GI50 is > 100 µM (inactive).

And the GI50 (U-251)?
The GI50 was > 100 µM (inactive).

And the GI50 (UACC-257)?
The GI50 was > 100 µM (inactive).

What about the GI50 (UACC-62) of the same compound?
The GI50 was > 100 µM (inactive).

And the GI50 (UO-31)?
Its GI50 is > 100 µM (inactive).
